Assays:
MLL1 chromatin occupancy = test: ChIP-seq of MLL1 occupancy in 293T cells; assay type: cell-based, human; settings: relative to DMSO control
Experimental: FIG. 6. CKII inhibition increases genome-wide MLL occupancy and excludes SEC recruitment in MLL leukemia cells. (A) and (B) MLL1C occupancy in CX-4945 or TTP22 treated cells were shown relative to DMSO control. […] (C) Track examples of the MLL1 occupancy at the promoter regions of ELF2 and C6orf211. (D) CX-4945 inhibition of leukemia cell proliferation. Multiple MLL leukemia (orange lines) and non-MLL leukemia (blue lines) were cultured with different doses of CX-4945 for 3 days. Cell number was determined by cell counter and normalized to DMSO control. (E) SEM cells were treated with 0, 5 or 10 μM of CX-4945 for 30 hours and western blot was performed to determine the MLL1 full-length protein levels and MLL-AF4 fusion protein levels. (F) MLL-AFF1, AFF4 and ELL2 occupancies were decreased by CX-4945 treatment in SEM cells.
ChIP-seq Analysis. 5×10^7 cells were used for each ChIP assay, as performed as previously described (Chen et al. 2015). Peaks were called with MACS v1.4.2 (Zhang et al. 2008) using default parameters and were annotated by the HOMER software (Heinz et al. 2010). Metaplots were generated using ngsplot (Shen et al. 2014). […] Differential occupancy of MLL1 was evaluated by edgeR, and peaks with Benjamini-Hochburg adjusted p-values less than 0.05 were considered to be differentially occupied. […]

[1] = system: MLL1 cleavage by taspase1; test: in vitro taspase1 cleavage assay on lysates of pretreated taspase1 KO cells; assay type: biochemical, human; settings: 293T taspase1 KO cells pretreated 30 hours with CX-4945 (3 μM) or TTP22 (10 μM), compared with DMSO control
Experimental: FIG. 5. CKII inhibitors selectively increase full-length MLL1 protein levels by decreasing the phosphorylation of MLL1 near the cleavage sites. (A) Conservation of the sequences flanking MLL1-CS2, MLL2 and TFIIA cleavage sites and phosphorylated serine and threonine residues after the cleavage sites (highlighted in red). (B) and (C) 293T cells were transfected with vector control (VT), WT, AA or DD reporter constructs of MLL1-p75 or TFIIA. Western blot was performed with anti-Flag antibody for MLL1 (p75: FL, p47: cleaved) or TFIIA (p54: FL, p47: cleaved). (D) and (E) 293T cells were transfected with WT or AA reporter constructs of MLL1-p75 or TFIIA in the presence or absence of HA-taspase1. Western blot was performed with anti-Flag antibody for MLL1 or TFIIA, or anti-HA antibody for taspase1. (F) 293T cells were infected with shRNAs against CKIIα or CKIIα′. Western blot was performed with anti-MLL1C antibody for MLL1 full-length protein levels, and CKIIα or CKIIα′ for knockdown efficiency. (G) 293T cells were treated with DMSO or 10 μM CX-4945 for 30 hours. Cells were harvested and lysed for Western blot against MLL1, MLL2 or TFIIA using β-tubulin as the loading control. […]
in vitro taspase1 cleavage assay. […] Cleavage efficiency was detected by western blot against MLL1C and TFIIA using Hsp90 as the loading control.

MLL1 = test: Western blot of full-length MLL1 protein levels in cells treated with CKII inhibitors; assay type: cell-based, human; settings: 293T, MCF7 and HCT116 cells, 0-20 μM, 30 hours, Western blot with MLL1C antibody
Experimental: FIG. 5. CKII inhibitors selectively increase full-length MLL1 protein levels by decreasing the phosphorylation of MLL1 near the cleavage sites. (A) Conservation of the sequences flanking MLL1-CS2, MLL2 and TFIIA cleavage sites and phosphorylated serine and threonine residues after the cleavage sites (highlighted in red). (B) and (C) 293T cells were transfected with vector control (VT), WT, AA or DD reporter constructs of MLL1-p75 or TFIIA. Western blot was performed with anti-Flag antibody for MLL1 (p75: FL, p47: cleaved) or TFIIA (p54: FL, p47: cleaved). (D) and (E) 293T cells were transfected with WT or AA reporter constructs of MLL1-p75 or TFIIA in the presence or absence of HA-taspase1. Western blot was performed with anti-Flag antibody for MLL1 or TFIIA, or anti-HA antibody for taspase1. (F) 293T cells were infected with shRNAs against CKIIα or CKIIα′. Western blot was performed with anti-MLL1C antibody for MLL1 full-length protein levels, and CKIIα or CKIIα′ for knockdown efficiency. (G) 293T cells were treated with DMSO or 10 μM CX-4945 for 30 hours. Cells were harvested and lysed for Western blot against MLL1, MLL2 or TFIIA using β-tubulin as the loading control. (H) and (I) 293T taspase1 KO cells were pre-treated with CX-4945 (3 μM) or TTP22 (10 μM) for 30 hours. Whole cell lysates from the two conditions were incubated with increasing concentrations of his-taspase1 and subject to in vitro taspase1 assay.
FIG. 13. CKII inhibitors increase full-length MLL1 protein levels. (A) Prediction of kinases that phosphorylate MLL1 near the taspase1 cleavage site. (B) Structure of the CKII inhibitors CX-4945, TTP22, DMAT and TTB. (C) Comparison of the IC50 and molecular weight of the four CKII inhibitors. […] Quantification of the band intensities was performed by ImageJ software. (E) and (F) in vitro taspase1 cleavage assay. Taspase1 KO cell lysates were incubated with recombinant his-tagged taspase1 (0, 1, 10, 100 or 1000 ng) and subject to in vitro taspase1 cleavage assay. Cleavage efficiency was shown as the blotting for MLL1 and TFIIA using Hsp90 as the loading control.
Cell culture. […]

Cc1ccc(-c2csc3ncnc(SCCC(=O)O)c23)cc1 [TTP22, 3-[[5-(4-Methylphenyl)thieno[2,3-d]pyrimidin-4-yl]thio]propanoic acid]
MLL1 occupancy (genome-wide) (MLL1 chromatin occupancy): global increase of MLL1 occupancy | cleavage efficiency by recombinant taspase1 protein [1]: cleavage efficiency was significantly diminished | MLL1 full-length protein levels (MLL1): dose-dependent increase of MLL1 full-length protein levels
